# Experimental data as given in US12673970B2, “Neuroactive steroids and their methods of use” (priority 2020, dated 2026).
# Target: GABAA receptor ([35S]-TBPS binding, rat brain cortical membranes)
# Experiment: Steroid inhibition of [35S]-TBPS binding
# Settings: 3 nM [35S]-TBPS, in the presence of 5 mM GABA
# Method: [35S]-t-Butylbicyclophosphorothionate (TBPS) binding assays using rat brain cortical membranes in the presence of 5 mM GABA has been described (Gee et al, J. Pharmacol. Exp. Ther. 1987, 241, 346-353; Hawkinson et al, Mol. Pharmacol. 1994, 46, 977-985; Lewin, A. H et al., Mol. Pharmacol. 1989, 35, 189-194).
# Briefly, cortices are rapidly removed following decapitation of carbon dioxide-anesthetized Sprague-Dawley rats (200-250 g). The cortices are homogenized in 10 volumes of ice-cold 0.32 M sucrose using a glass/teflon homogenizer and centrifuged at 1500×g for 10 min at 4° C. The resultant supernatants are centrifuged at 10,000×g for 20 min at 4° C. to obtain the P2 pellets. The P2 pellets are resuspended in 200 mM NaCl/50 mM Na—K phosphate pH 7.4 buffer and centrifuged at 10,000×g for 10 min at 4° C. This washing procedure is repeated twice and the pellets are resuspended in 10 volumes of buffer. Aliquots ([…]) of the membrane suspensions are incubated with 3 nM [35S]-TBPS and 5 mL aliquots of test drug dissolved in dimethyl sulfoxide (DMSO) (final 0.5%) in the presence of 5 mM GABA. The incubation is brought to a final volume of 1.0 mL with buffer. Nonspecific binding is determined in the presence of […] and ranged from 15 to 25%. Following a 90 min incubation at room temp, the assays are terminated by filtration through glass fiber filters (Schleicher and Schuell No. 32) using a cell harvester (Brandel) and rinsed three times with ice-cold buffer. Filter bound radioactivity is measured by liquid scintillation spectrometry. Non-linear curve fitting of the overall data for each drug averaged for each concentration is done using Prism (GraphPad). […] The concentration of test compound producing 50% inhibition (IC50) of specific binding and the maximal extent of inhibition (Imax) are determined for the individual experiments with the same model used for the overall data and then the means±SEM.s of the individual experiments are calculated.
# Various compounds are or can be screened to determine their potential as modulators of [35S]-TBPS binding in vitro. These assays are or can be performed in accordance with the above
row,Compound,IC50 [nM]
1,"C[C@@]1(O)CC[C@H]2[C@@H](CC[C@@H]3[C@@H]2CC[C@]2(C)[C@@H](C(=O)CCn4cc(C#N)cn4)CC[C@@H]32)C1 [Example 1, 1-(3-((3R,5S,8R,9R,10S,13S,14S,17S)-3-hydroxy-3,13-dimethylhexadecahydro-1H-cyclopenta[a]phenanthren-17-yl)-3-oxopropyl)-1H-pyrazole-4-carbonitrile]",< 100
2,"COC[C@@]1(O)CC[C@H]2[C@@H](CC[C@@H]3[C@@H]2CC[C@]2(C)[C@@H](C(=O)CCn4cc(C#N)cn4)CC[C@@H]32)C1 [Example 2, 1-(3-((3R,5S,8R,9R,10S,13S,14S,17S)-3-hydroxy-3-(methoxymethyl)-13-methylhexadecahydro-1H-cyclopenta[a]phenanthren-17-yl)-3-oxopropyl)-1H-pyrazole-4-carbonitrile]",< 100
3,"C[C@@]1(O)CC[C@H]2[C@H](CC[C@@H]3[C@@H]2CC[C@]2(C)[C@@H](C(=O)CCCn4cc(C#N)cn4)CC[C@@H]32)C1 [Example 3, 1-(4-((3R,5R,8R,9R,10S,13S,14S,17S)-3-hydroxy-3,13-dimethylhexadecahydro-1H-cyclopenta[a]phenanthren-17-yl)-4-oxobutyl)-1H-pyrazole-4-carbonitrile]",< 100
4,"C[C@@]1(O)CC[C@H]2[C@H](CC[C@@H]3[C@@H]2CC[C@]2(C)[C@@H](C(=O)CCCCn4cc(C#N)cn4)CC[C@@H]32)C1 [Example 4, 1-(5-((3R,5R,8R,9R,10S,13S,14S,17S)-3-hydroxy-3,13-dimethylhexadecahydro-1H-cyclopenta[a]phenanthren-17-yl)-5-oxopentyl)-1H-pyrazole-4-carbonitrile]",< 100
5,"C[C@@]1(O)CC[C@H]2[C@H](CC[C@@H]3[C@@H]2CC[C@]2(C)[C@@H](CC(=O)Cn4cc(C#N)cn4)CC[C@@H]32)C1 [Example 5, 1-(3-((3R,5R,8R,9R,10S,13R,14S,17R)-3-hydroxy-3,13-dimethylhexadecahydro-1H-cyclopenta[a]phenanthren-17-yl)-2-oxopropyl)-1H-pyrazole-4-carbonitrile]",100 to 1000
6,"CC(C)(C(=O)C[C@H]1CC[C@H]2[C@@H]3CC[C@@H]4C[C@](C)(O)CC[C@@H]4[C@H]3CC[C@]12C)n1cc(C#N)cn1 [Example 7, 1-(4-((3R,5R,8R,9R,10S,13R,14S,17R)-3-hydroxy-3,13-dimethylhexadecahydro-1H-cyclopenta[a]phenanthren-17-yl)-2-methyl-3-oxobutan-2-yl)-1H-pyrazole-4-carbonitrile]",100 to 1000
7,"C[C@H](C(=O)C[C@H]1CC[C@H]2[C@@H]3CC[C@@H]4C[C@](C)(O)CC[C@@H]4[C@H]3CC[C@]12C)n1cc(C#N)cn1 [Example 8, 1-((R)-4-((3R,5R,8R,9R,10S,13R,14S,17R)-3-hydroxy-3,13-dimethylhexadecahydro-1H-cyclopenta[a]phenanthren-17-yl)-3-oxobutan-2-yl)-1H-pyrazole-4-carbonitrile]",100 to 1000
8,"C[C@@H](C(=O)C[C@H]1CC[C@H]2[C@@H]3CC[C@@H]4C[C@](C)(O)CC[C@@H]4[C@H]3CC[C@]12C)n1cc(C#N)cn1 [Example 9, 1-((S)-4-((3R,5R,8R,9R,10S,13R,14S,17R)-3-hydroxy-3,13-dimethylhexadecahydro-1H-cyclopenta[a]phenanthren-17-yl)-3-oxobutan-2-yl)-1H-pyrazole-4-carbonitrile]",100 to 1000
9,"C[C@H](C(=O)Cn1cc(C#N)cn1)[C@H]1CC[C@H]2[C@@H]3CC[C@@H]4C[C@](C)(O)CC[C@@H]4[C@H]3CC[C@]12C [Example 10, 1-((S)-3-((3R,5R,8R,9R,10S,13S,14S,17R)-3-hydroxy-3,13-dimethylhexadecahydro-1H-cyclopenta[a]phenanthren-17-yl)-2-oxobutyl)-1H-pyrazole-4-carbonitrile]",< 100
10,"C[C@@H](C(=O)Cn1cc(C#N)cn1)[C@H]1CC[C@H]2[C@@H]3CC[C@@H]4C[C@](C)(O)CC[C@@H]4[C@H]3CC[C@]12C [Example 11, 1-((R)-3-((3R,5R,8R,9R,10S,13S,14S,17R)-3-hydroxy-3,13-dimethylhexadecahydro-1H-cyclopenta[a]phenanthren-17-yl)-2-oxobutyl)-1H-pyrazole-4-carbonitrile]",100 to 1000
11,"C[C@@]1(O)CC[C@H]2[C@H](CC[C@@H]3[C@@H]2CC[C@]2(C)[C@@H](CC(=O)c4ccc(C#N)cc4)CC[C@@H]32)C1 [Example 12, 4-(2-((3R,5R,8R,9R,10S,13R,14S,17R)-3-hydroxy-3,13-dimethylhexadecahydro-1H-cyclopenta[a]phenanthren-17-yl)acetyl)benzonitrile]",< 100
12,"COC[C@@]1(O)CC[C@@]2(C)[C@H](CC[C@@H]3[C@@H]2CC[C@]2(C)[C@@H](C(=O)CCn4cc(C#N)cn4)CC[C@@H]32)C1 [Example 13, 1-(3-((3R,5R,8R,9S,10S,13S,14S,17S)-3-hydroxy-3-(methoxymethyl)-10,13-dimethylhexadecahydro-1H-cyclopenta[a]phenanthren-17-yl)-3-oxopropyl)-1H-pyrazole-4-carbonitrile]",< 100

# Tested on: GABAA receptor ([35S]-TBPS binding, rat brain cortical membranes)
# Experiment: not given
# Settings: statement on the positive control; cited from earlier work
row,Compound,inhibition of TBPS binding (positive control)
1,Picrotoxin,robustly inhibit TBPS binding
